Literature values as cited in patent publication US12214218B2, “Perfusion modulated tumor dose sculpting with single dose radiotherapy” (MEMORIAL SLOAN KETTERING CANCER CENTER, priority 2019, dated 2025).
Like-named read-outs stand apart in the source and are kept apart here.

COc1cc2c(Oc3ccc4[nH]c(C)cc4c3F)ncnc2cc1OCCCN1CCCC1 [cediranib]
average half-life (plasma half-life for cediranib): 22 to 27 h

CNC(=O)c1ccccc1Sc1ccc2c(/C=C/c3ccccn3)n[nH]c2c1 [axitinib]
average half-life (in vivo): 2.5 to 6 h

Cc1cc(C)c(/C=C2\C(=O)Nc3ccccc32)[nH]1 [Semaxanib/SU5416, Semaxanib]
average half-life (in vivo): 0.5 to 1 h

anginex
half-life (in vivo): 0.833 h

B1: rhASM: Recombinant ASM manufactured for clinical use; orphan drug status for Type B NPD (protein, UniProt P17405 47-631, looked up)
Sphingomyelin …: LALSDSRVLWAPAEAHPLSPQGHPARLHRIVPRLRDVFGWGNLTCPICKGLFTAINLGLKKEPNVARVGSVAIKLCNLLKIAPPAVCQSIVHLFEDDMVEVWRRSVLSPSEACGLLLGSTCGHWDIFSSWNISLPTVPKPPPKPPSPPAPGAPVSRILFLTDLHWDHDYLEGTDPDCADPLCCRRGSGLPPASRPGAGYWGEYSKCDLPLRTLESLLSGLGPAGPFDMVYWTGDIPAHDVWHQTRQDQLRALTTVTALVRKFLGPVPVYPAVGNHESTPVNSFPPPFIEGNHSSRWLYEAMAKAWEPWLPAEALRTLRIGGFYALSPYPGLRLISLNMNFCSRENFWLLINSTDPAGQLQWLVGELQAAEDRGDKVHIIGHIPPGHCLKSWSWNYYRIVARYENTLAAQFFGHTHVDEFEVFYDEETLSRPLAVAFLAPSATTYIGLNPGYRVYQIDGNYSGSSHVVLDHETYILNLTQANIPGAIPHWQLLYRARETYGLPNTLPTAWHNLVYRMRGDMQLFQTFWFLYHKGHPPSEPCGTPCRLATLCAQLSARADSPALCRHLMPDGSLPEAQSLWPRPLFC
toxicity at high doses (wild type mice): non-toxic
